Tests used:
Test in all cases: 3' UTR reporter interaction score (median-centred robust z-score of log2 firefly/Renilla activity); higher = less repression of the 3' UTR reporter
Conditions in all cases: HEK293T; 48 h
RB1 = system: RB1
Procedure, shortened: (§1)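 HEK293T cells (10,000/well, 96-well plates) were co-transfected using DharmaFECT Duo with 100 ng firefly luc2P reporter carrying the gene's 3' UTR, 20 ng Renilla pRL-TK control and 2.5 pmol miRNA mimic. Dual-luciferase activities were read 48 h post-transfection. The interaction score is the log-transformed firefly/Renilla ratio as a per-plate robust z-score (median, median absolute deviation), median-centred per miRNA and averaged over at least two independent screens; more negative indicates interaction.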

NOTCH1 = system: NOTCH1
Procedure, shortened: as §1

MYCN = system: MYCN
Procedure, shortened: as §1

PHF6 = system: PHF6
Procedure, shortened: as §1

BRCA2 = system: BRCA2
Procedure, shortened: as §1

FBXW7 = system: FBXW7
Procedure, shortened: as §1

MYB = system: MYB
Procedure, shortened: as §1

MYC = system: MYC
Procedure, shortened: as §1

EZH2 = system: EZH2
Procedure, shortened: as §1

PHOX2B = system: PHOX2B
Procedure, shortened: as §1

ZEB2 = system: ZEB2
Procedure, shortened: as §1

HRAS = system: HRAS
Procedure, shortened: as §1

TP53 = system: TP53
Procedure, shortened: as §1

MYT1L = system: MYT1L
Procedure, shortened: as §1

Row | Sequence | 3' UTR reporter interaction score (RB1) | 3' UTR reporter interaction score (NOTCH1) | 3' UTR reporter interaction score (MYCN) | 3' UTR reporter interaction score (PHF6) | 3' UTR reporter interaction score (BRCA2) | 3' UTR reporter interaction score (FBXW7) | 3' UTR reporter interaction score (MYB) | 3' UTR reporter interaction score (MYC) | 3' UTR reporter interaction score (EZH2) | 3' UTR reporter interaction score (PHOX2B) | 3' UTR reporter interaction score (ZEB2) | 3' UTR reporter interaction score (HRAS) | 3' UTR reporter interaction score (TP53) | 3' UTR reporter interaction score (MYT1L)
1 | AGUGUGGCUUUCUUAGAGC | -0.335 | -0.152 | 0.47 | -0.715 | -3.13 | 1.11 | 0.805 | -0.501 | -0.421 | 1.11 | 0.748 | 0.377 | -0.0434 | -0.23
2 | AGUUAAUGAAUCCUGGAAAGU | -0.487 | -0.406 | 0.0474 | -0.54 | -0.407 | 0.0665 | 0.47 | 0.0217 | -0.175 | -0.662 | 0.251 | -0.441 | -0.194 | -0.25
3 | AUAAGACGAGCAAAAAGCUUGU | -1.39 | -0.743 | -0.0307 | -0.375 | 2.27 | 0.133 | -1.19 | -0.771 | 1.23 | -0.501 | -2.58 | 0.557 | 0.501 | 0.212
4 | AUAAUACAUGGUUAACCUCUUU | -0.631 | 0.871 | 1.04 | -0.737 | -0.764 | -0.808 | 1.01 | 0.024 | 0 | -0.62 | -2.7 | -0.143 | -0.592 | 0.598
5 | AUCAACAGACAUUAAUUGGGCGC | 1.49 | -1.2 | -0.34 | -1.06 | 1.26 | 1.67 | 0.0314 | -1.29 | 1.19 | -0.111 | 1.91 | 1.56 | -1.55 | -0.0651
6 | AUCACACAAAGGCAACUUUUGU | 0.566 | 0.929 | 0.776 | -0.33 | -0.664 | -0.0452 | 0.989 | 0.0727 | -1.06 | 0.549 | -0.747 | -0.777 | -0.723 | 0.734
7 | AUCACAUUGCCAGGGAUUUCC | 0.826 | -0.492 | 0.592 | 0.394 | -1.67 | 0.0652 | -0.3 | -0.00223 | 0.281 | -0.216 | 2.06 | -0.452 | -1.29 | 0.197
8 | AUCAGCAAACAUUUAUUGUGUG | 1.07 | 0.157 | -0.181 | 1.01 | 0.0901 | -0.701 | 1.62 | -0.19 | -1.04 | 1.35 | 1.25 | -1.06 | 0.16 | -0.934
9 | AUCAUAGAGGAAAAUCCACGU | -0.168 | 0.241 | 0.335 | 0.424 | 0.121 | 0.0331 | -0.185 | -0.578 | 0.733 | 0.628 | -0.144 | -1.11 | 0.405 | 0.0345
10 | AUCAUAGAGGAAAAUCCAUGUU | 0.00936 | 1.28 | 0.0452 | -0.0407 | -0.0049 | -0.575 | 0.366 | -0.229 | 0.791 | 0.462 | -1.1 | -0.664 | 0.636 | -0.0506
11 | AUCAUGAUGGGCUCCUCGGUGU | 0.226 | -2.44 | -1.14 | 0.0291 | -0.103 | -2.53 | 0.47 | -1.04 | -0.332 | -0.574 | 0.672 | 0.527 | 0.202 | 1.53
12 | AUCCCUUGCAGGGGCUGUUGGGU | -0.201 | 0.359 | 0.104 | -0.0289 | -0.445 | -1.6 | 0.681 | 0.108 | 0.197 | -1.62 | 1.78 | -0.0656 | -0.855 | 0.613
13 | AUCCUUGCUAUCUGGGUGCUA | -2.46 | 0.113 | 1.2 | -1.61 | -0.448 | 0.895 | 0.799 | 0.118 | -0.755 | -0.723 | -0.105 | -3.26 | 0.763 | 0.363
14 | AUCGCUGCGGUUGCGAGCGCUGU | -0.265 | -0.324 | 0.0647 | 2.14 | -2.3 | 0.301 | 1.13 | 0.0173 | -1.15 | 2.38 | 0.885 | -1.73 | -0.536 | 1.61
15 | AUCGGGAAUGUCGUGUCCGCC | -0.355 | -0.49 | -0.166 | 1.55 | 0.225 | 0.361 | -0.74 | -1.57 | -0.604 | 0.773 | 0.211 | 0.0629 | 0.313 | -0.0689
16 | AUCGUGCAUCCCUUUAGAGUGUU | 0.943 | -0.525 | 0.792 | 1.97 | 0.348 | 0.0524 | 0.132 | -0.211 | 0.461 | -0.0114 | -2.08 | -0.945 | -0.928 | 0.0982
17 | AUCGUGCAUCCUUUUAGAGUGU | 0.712 | -0.741 | 1.14 | 2.24 | -0.461 | -0.0607 | 0.368 | -0.764 | 0.0977 | 0.0627 | -2.58 | -1.03 | -0.802 | -0.261
18 | AUGACCUAUGAAUUGACAGAC | -3 | -0.0227 | 1.35 | -2.93 | -0.0675 | -0.658 | 1.61 | 1.39 | 0.321 | -1.53 | -6.08 | 0.425 | 0.0613 | 0.231
19 | AUGAUCCAGGAACCUGCCUCU | -0.262 | 0.405 | 0.642 | -2.82 | 0.796 | 1.33 | -0.332 | 0.0276 | 1.23 | -1.8 | -0.647 | -0.133 | -0.239 | -2.69

From the supplement of paper PMC5844555
